The numbers were not newly measured in US20220249978A1, “NOVEL SOLVENT FOR EXTRACTING, SOLUBILISING AND/OR FORMULATING VOLATILE AND NON-VOLATILE COMPOUNDS OF INTEREST IN ANIMAL NUTRITION AND HEALTH, PREPARATION METHOD AND USES THEREOF” (ID4TECH, priority 2019, published 2022), which cites them from elsewhere.

One data set concerns Candida strains. The following applies: in vitro and in vivo.
Data set [1] concerns Gram+ but also Gram− bacteria such as Staphylococcus, Streptococcus, Gardnerella, Haemophilus but also Listeria monocytogenes.
The next data set deals with Bacillus anthracis. The following applies: blocks its growth without killing the cells.
Data set [2] deals with pro-inflammatory cytokines (IL-8 and TNF-α).

For `CCCCCCCCCCCC(=O)OCC(O)CO` (stereo not shown) [glycerol monolaurate], the “growth of Candida strains” value in the data set on Candida strains is on record as “inhibits the growth”. In addition, in data set [1], the “growth of Gram+ and Gram− bacteria” value was “acts against the growth”. Besides, the “action against Bacillus anthracis” value in the data set on Bacillus anthracis was “bacteriostatic agent”. The “quantity of pro-inflammatory cytokines (IL-8 and TNF-α)” value in data set [2] is reported as “significant decrease”.
